Data from patent US12122763B2, “Substituted piperidines for androgen receptor degradation” (UBIX THERAPEUTICS, INC., priority 2020, dated 2024).

Target: T1, Androgen Receptor (AR) protein (Homo sapiens, UniProt P10275, T878A)
T1 construct: endogenous in cells; host or cells: LNCaP
Test: Androgen Receptor (AR) protein degradation assay in LNCaP cells, western blotting
Type: cell-based
Conditions: 20 h; for inhibition at 0.01 µM: 0.01 μM compound; for inhibition at 0.1 µM: 0.1 μM compound; for inhibition at 1 µM: 1 μM compound
Procedure, shortened: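 AR protein level was detected by western blot (ECL) against GAPDH or β-actin controls, with 8 μg lysate protein loaded per lane after BCA quantification. Lysates came from LNCaP cells exposed to test compound for 20 h, following 3 days of growth in RPMI/10% FBS.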

T1 sequence (P10275 whole entry T878A): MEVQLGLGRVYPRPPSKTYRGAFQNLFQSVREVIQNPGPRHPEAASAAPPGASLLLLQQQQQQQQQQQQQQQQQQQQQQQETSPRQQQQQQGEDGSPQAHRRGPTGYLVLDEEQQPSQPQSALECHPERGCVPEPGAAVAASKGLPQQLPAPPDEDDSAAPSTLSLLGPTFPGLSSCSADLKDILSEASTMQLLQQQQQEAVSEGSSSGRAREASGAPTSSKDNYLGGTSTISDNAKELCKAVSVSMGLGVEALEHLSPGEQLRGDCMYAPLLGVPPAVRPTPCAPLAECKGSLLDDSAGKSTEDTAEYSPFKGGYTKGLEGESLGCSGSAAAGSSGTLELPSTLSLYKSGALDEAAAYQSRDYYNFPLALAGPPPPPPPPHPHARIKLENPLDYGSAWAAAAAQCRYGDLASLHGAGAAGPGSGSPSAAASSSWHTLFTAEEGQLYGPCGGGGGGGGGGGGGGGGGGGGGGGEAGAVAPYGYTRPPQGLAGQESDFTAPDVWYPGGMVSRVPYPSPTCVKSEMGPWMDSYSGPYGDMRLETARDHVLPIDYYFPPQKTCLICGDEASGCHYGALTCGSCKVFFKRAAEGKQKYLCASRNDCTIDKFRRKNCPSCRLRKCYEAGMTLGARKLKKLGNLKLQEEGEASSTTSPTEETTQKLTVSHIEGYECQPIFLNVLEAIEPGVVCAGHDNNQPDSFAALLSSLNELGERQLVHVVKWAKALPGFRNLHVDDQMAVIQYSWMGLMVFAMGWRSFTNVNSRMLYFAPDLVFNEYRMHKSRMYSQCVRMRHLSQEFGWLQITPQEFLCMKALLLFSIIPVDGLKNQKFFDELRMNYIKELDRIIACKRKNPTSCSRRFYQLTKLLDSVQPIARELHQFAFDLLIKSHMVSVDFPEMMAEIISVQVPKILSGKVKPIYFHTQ
T1 sequence (Q96SW2 whole entry partner): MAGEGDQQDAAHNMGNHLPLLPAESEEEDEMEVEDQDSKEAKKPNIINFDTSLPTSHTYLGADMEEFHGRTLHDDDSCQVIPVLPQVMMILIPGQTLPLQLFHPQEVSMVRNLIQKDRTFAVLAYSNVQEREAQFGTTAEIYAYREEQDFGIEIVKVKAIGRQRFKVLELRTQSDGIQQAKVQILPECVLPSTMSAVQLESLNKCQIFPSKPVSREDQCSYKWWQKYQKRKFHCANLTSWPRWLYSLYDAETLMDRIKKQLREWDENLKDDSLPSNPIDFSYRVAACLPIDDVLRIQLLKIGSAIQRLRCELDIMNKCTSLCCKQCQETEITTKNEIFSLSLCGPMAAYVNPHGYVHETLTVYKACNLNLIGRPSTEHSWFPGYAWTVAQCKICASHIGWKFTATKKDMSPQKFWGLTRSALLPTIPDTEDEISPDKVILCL

Row | SMILES | inhibition at 0.01 µM | inhibition at 0.1 µM | inhibition at 1 µM | inhibition at 10 µM (10 μM compound)
1 | N#Cc1ccc(N2CCC(C(=O)Nc3ccc(C#CCN4CC5(CCN(c6ccc7c(c6)C(=O)N(C6CCC(=O)NC6=O)C7=O)CC5)C4)cn3)CC2)cc1C(F)(F)F (stereo not shown) [Example 134, 1-(4-cyano-3-(trifluoromethyl)phenyl)-N-(5-(3-(7-(2-(2,6-dioxopiperidin-3-yl)-1,3-dioxoisoindolin-5-yl)-2,7-diazaspiro[3.5]nonan-2-yl)prop-1-yn-1-yl)pyridin-2-yl)piperidine-4-carboxamide] | 56% | 87% | 96% | 92%
2 | N#Cc1ccc(N2CCC(C(=O)Nc3ccc(N4CCC(CN5CC6(CCN(c7ccc8c(c7)CN(C7CCC(=O)NC7=O)C8=O)CC6)C5)CC4)cn3)CC2)cc1C(F)(F)F (stereo not shown) [Example 135, 1-(4-cyano-3-(trifluoromethyl)phenyl)-N-(5-(4-((7-(2-(2,6-dioxopiperidin-3-yl)-1-oxoisoindolin-5-yl)-2,7-diazaspiro[3.5]nonan-2-yl)methyl)piperidin-1-yl)pyridin-2-yl)piperidine-4-carboxamide] | 35% | 94% | 85% | –
3 | N#Cc1ccc(N2CCC(F)(C(=O)Nc3ccc(N4CCC(CN5CC6(CCN(c7ccc8c(c7)CN(C7CCC(=O)NC7=O)C8=O)CC6)C5)CC4)cn3)CC2)cc1C(F)(F)F (stereo not shown) [Example 136, 1-(4-cyano-3-(trifluoromethyl)phenyl)-N-(5-(4-((7-(2-(2,6-dioxopiperidin-3-yl)-1-oxoisoindolin-5-yl)-2,7-diazaspiro[3.5]nonan-2-yl)methyl)piperidin-1-yl)pyridin-2-yl)-4-fluoropiperidine-4-carboxamide] | 38% | 92% | 91% | –
4 | N#Cc1ncc(N2CCC(C(=O)Nc3ccc(N4CCC(CN5CC6(CCN(c7ccc8c(c7)CN(C7CCC(=O)NC7=O)C8=O)CC6)C5)CC4)cn3)CC2)cc1C(F)(F)F (stereo not shown) [Example 137, 1-(6-cyano-5-(trifluoromethyl)pyridin-3-yl)-N-(5-(4-((7-(2-(2,6-dioxopiperidin-3-yl)-1-oxoisoindolin-5-yl)-2,7-diazaspiro[3.5]nonan-2-yl)methyl)piperidin-1-yl)pyridin-2-yl)piperidine-4-carboxamide] | 46% | 86% | 82% | –
5 | N#Cc1ccc(N2CCC(C(=O)Nc3ccc(N4CCC(CCN5CC6(CCN(c7ccc8c(c7)CN(C7CCC(=O)NC7=O)C8=O)CC6)C5)CC4)cn3)CC2)cc1C(F)(F)F (stereo not shown) [Example 138, 1-(4-cyano-3-(trifluoromethyl)phenyl)-N-(5-(4-(2-(7-(2-(2,6-dioxopiperidin-3-yl)-1-oxoisoindolin-5-yl)-2,7-diazaspiro[3.5]nonan-2-yl)ethyl)piperidin-1-yl)pyridin-2-yl)piperidine-4-carboxamide] | 52% | 95% | 90% | –
6 | N#Cc1ccc(N2CCC(C(=O)Nc3ccc(N4CCC(CCN5CCN(c6ccc7c(c6)CN(C6CCC(=O)NC6=O)C7=O)CC5)CC4)cn3)CC2)cc1C(F)(F)F (stereo not shown) [Example 139, 1-(4-cyano-3-(trifluoromethyl)phenyl)-N-(5-(4-(2-(4-(2-(2,6-dioxopiperidin-3-yl)-1-oxoisoindolin-5-yl)piperazin-1-yl)ethyl)piperidin-1-yl)pyridin-2-yl)piperidine-4-carboxamide] | 30% | 92% | 84% | –
7 | N#Cc1ccc(N2CCC(C(=O)Nc3ccc(N4CCC(CN5CCN(C6CCN(c7ccc8c(c7)CN(C7CCC(=O)NC7=O)C8=O)CC6)CC5)CC4)cn3)CC2)cc1C(F)(F)F (stereo not shown) [Example 140, 1-(4-cyano-3-(trifluoromethyl)phenyl)-N-(5-(4-((4-(1-(2-(2,6-dioxopiperidin-3-yl)-1-oxoisoindolin-5-yl)piperidin-4-yl)piperazin-1-yl)methyl)piperidin-1-yl)pyridin-2-yl)piperidine-4-carboxamide] | 87% | 98% | 95% | –
8 | N#Cc1ccc(N2CCC(F)(C(=O)Nc3ccc(N4CCC(CN5CCN(C6CCN(c7ccc8c(c7)CN(C7CCC(=O)NC7=O)C8=O)CC6)CC5)CC4)cn3)CC2)cc1C(F)(F)F (stereo not shown) [Example 141, 1-(4-cyano-3-(trifluoromethyl)phenyl)-N-(5-(4-((4-(1-(2-(2,6-dioxopiperidin-3-yl)-1-oxoisoindolin-5-yl)piperidin-4-yl)piperazin-1-yl)methyl)piperidin-1-yl)pyridin-2-yl)-4-fluoropiperidine-4-carboxamide] | 66% | 92% | 90% | –
9 | N#Cc1ncc(N2CCC(C(=O)Nc3ccc(N4CCC(CN5CCN(C6CCN(c7ccc8c(c7)CN(C7CCC(=O)NC7=O)C8=O)CC6)CC5)CC4)cn3)CC2)cc1C(F)(F)F (stereo not shown) [Example 142, 1-(6-cyano-5-(trifluoromethyl)pyridin-3-yl)-N-(5-(4-((4-(1-(2-(2,6-dioxopiperidin-3-yl)-1-oxoisoindolin-5-yl)piperidin-4-yl)piperazin-1-yl)methyl)piperidin-1-yl)pyridin-2-yl)piperidine-4-carboxamide] | 55% | 87% | 83% | –
10 | N#Cc1ccc(N2CCC(C(=O)Nc3ccc(N4CCC(CN5CCN(CC6CCN(c7ccc8c(c7)CN(C7CCC(=O)NC7=O)C8=O)CC6)CC5)CC4)cn3)CC2)cc1C(F)(F)F (stereo not shown) [Example 143, 1-(4-cyano-3-(trifluoromethyl)phenyl)-N-(5-(4-((4-((1-(2-(2,6-dioxopiperidin-3-yl)-1-oxoisoindolin-5-yl)piperidin-4-yl)methyl)piperazin-1-yl)methyl)piperidin-1-yl)pyridin-2-yl)piperidine-4-carboxamide] | 73% | 97% | 97% | –
11 | N#Cc1ccc(N2CCC(F)(C(=O)Nc3ccc(N4CCC(CN5CCN(CC6CCN(c7ccc8c(c7)CN(C7CCC(=O)NC7=O)C8=O)CC6)CC5)CC4)cn3)CC2)cc1C(F)(F)F (stereo not shown) [Example 144, 1-(4-cyano-3-(trifluoromethyl)phenyl)-N-(5-(4-((4-((1-(2-(2,6-dioxopiperidin-3-yl)-1-oxoisoindolin-5-yl)piperidin-4-yl)methyl)piperazin-1-yl)methyl)piperidin-1-yl)pyridin-2-yl)-4-fluoropiperidine-4-carboxamide] | 43% | 84% | 95% | –
12 | N#Cc1ncc(N2CCC(C(=O)Nc3ccc(N4CCC(CN5CCN(CC6CCN(c7ccc8c(c7)CN(C7CCC(=O)NC7=O)C8=O)CC6)CC5)CC4)cn3)CC2)cc1C(F)(F)F (stereo not shown) [Example 145, 1-(6-cyano-5-(trifluoromethyl)pyridin-3-yl)-N-(5-(4-((4-((1-(2-(2,6-dioxopiperidin-3-yl)-1-oxoisoindolin-5-yl)piperidin-4-yl)methyl)piperazin-1-yl)methyl)piperidin-1-yl)pyridin-2-yl)piperidine-4-carboxamide] | 20% | 84% | 88% | –
13 | N#Cc1ccc(N2CCC(C(=O)Nc3ccc(N4CCC(CN5CCC(Oc6ccc7c(c6)C(=O)N(C6CCC(=O)NC6=O)C7=O)CC5)CC4)cn3)CC2)cc1C(F)(F)F (stereo not shown) [Example 146, 1-(4-cyano-3-(trifluoromethyl)phenyl)-N-(5-(4-((4-((2-(2,6-dioxopiperidin-3-yl)-1,3-dioxoisoindolin-5-yl)oxy)piperidin-1-yl)methyl)piperidin-1-yl)pyridin-2-yl)piperidine-4-carboxamide] | 67% | 97% | 98% | –
14 | N#Cc1ccc(N2CCC(C(=O)Nc3ccc(N4CCC(CN5CCC(COc6ccc7c(c6)C(=O)N(C6CCC(=O)NC6=O)C7=O)CC5)CC4)cn3)CC2)cc1C(F)(F)F (stereo not shown) [Example 147, 1-(4-cyano-3-(trifluoromethyl)phenyl)-N-(5-(4-((4-(((2-(2,6-dioxopiperidin-3-yl)-1,3-dioxoisoindolin-5-yl)oxy)methyl)piperidin-1-yl)methyl)piperidin-1-yl)pyridin-2-yl)piperidine-4-carboxamide] | 68% | 96% | 97% | –
15 | N#Cc1ccc(N2CCC(C(=O)Nc3ccc(N4CC(CN5CCC(Oc6ccc7c(c6)C(=O)N(C6CCC(=O)NC6=O)C7=O)CC5)C4)cn3)CC2)cc1C(F)(F)F (stereo not shown) [Example 148, 1-(4-cyano-3-(trifluoromethyl)phenyl)-N-(5-(3-((4-((2-(2,6-dioxopiperidin-3-yl)-1,3-dioxoisoindolin-5-yl)oxy)piperidin-1-yl)methyl)azetidin-1-yl)pyridin-2-yl)piperidine-4-carboxamide] | 27% | 87% | 93% | –
16 | N#Cc1ccc(N2CCC(C(=O)Nc3ccc(N4CC(CN5CCC(COc6ccc7c(c6)C(=O)N(C6CCC(=O)NC6=O)C7=O)CC5)C4)cn3)CC2)cc1C(F)(F)F (stereo not shown) [Example 149, 1-(4-cyano-3-(trifluoromethyl)phenyl)-N-(5-(3-((4-(((2-(2,6-dioxopiperidin-3-yl)-1,3-dioxoisoindolin-5-yl)oxy)methyl)piperidin-1-yl)methyl)azetidin-1-yl)pyridin-2-yl)piperidine-4-carboxamide] | 56% | 97% | 97% | –
17 | N#Cc1ccc(N2CCC(C(=O)Nc3ccc(N4CCC(OCCN5CCN(c6ccc7c(c6)C(=O)N(C6CCC(=O)NC6=O)C7=O)CC5)CC4)cn3)CC2)cc1C(F)(F)F (stereo not shown) [Example 150, 1-(4-cyano-3-(trifluoromethyl)phenyl)-N-(5-(4-(2-(4-(2-(2,6-dioxopiperidin-3-yl)-1,3-dioxoisoindolin-5-yl)piperazin-1-yl)ethoxy)piperidin-1-yl)pyridin-2-yl)piperidine-4-carboxamide] | 55% | 97% | 99% | –
